Results taken from PubChem BioAssay AID1745844 (Carcinogenic Potency Database (CPDB), 2022).
“And” between values parts separate entries of the source, which are not always exact repeats. Equal entries are not always repeated. The source made the active and inactive calls. No rule for the calls is given here.

Test system: rodent lifetime carcinogenesis bioassay, tumor incidence TD50
Test: carcinogenic potency in animals, long-term in vivo studies, CPDB compilation (AID 1745844)
[1] = mouse, strain ddNi, males, in feed, site: liver, lesion: adenoma-like tumor, dosed 160 weeks, study length 160 weeks

Q: What does the source list for `Cc1cc(O)c2c(c1O)C(=O)C13C(=C2O)C(=O)C2C(O)C1C1C(O)C3C(=O)C3=C(O)c4c(O)cc(C)c(O)c4C(=O)C321` (stereo not drawn)?
A: TD50 (mouse, strain ddNi, females, in feed, site: liver, lesion: liver-cell adenoma, dosed 160 weeks, study length 160 weeks): 122 mg/kg/day; TD50 (mouse, strain ddNi, females, in feed, site: liver, lesion: liver-cell carcinoma, dosed 160 weeks, study length 160 weeks): 248 mg/kg/day; TD50 (mouse, strain ddNi, females, in feed, site: liver, lesion: several types, types named in the paper, dosed 160 weeks, study length 160 weeks): 79.4 mg/kg/day; TD50 [1]: 113 mg/kg/day; carcinogen call [1]: positive; TD50 (mouse, strain ddNi, males, in feed, site: liver, lesion: hepatoma, dosed 160 weeks, study length 160 weeks): 89.5 mg/kg/day and 74.3 mg/kg/day and 113 mg/kg/day; TD50 (mouse, strain ddNi, males, in feed, site: liver, lesion: liver-cell adenoma, dosed 160 weeks, study length 160 weeks): 83.7 mg/kg/day and 25.1 mg/kg/day and 231 mg/kg/day; TD50 (mouse, strain ddNi, males, in feed, site: liver, lesion: liver-cell carcinoma, dosed 160 weeks, study length 160 weeks): 332 mg/kg/day; TD50 (mouse, strain ddNi, males, in feed, site: liver, lesion: several types, types named in the paper, dosed 160 weeks, study length 160 weeks): 14.8 mg/kg/day

Q: How did the TD50 (mouse, strain NMRI, both sexes, in feed, site: any site (literature study), lesion: one or several types, types not named, dosed 104 weeks, study length 104 weeks) turn out when `CC(=O)C(N=Nc1ccc(Cl)cc1Cl)C(=O)Nc1ccc(-c2ccc(NC(=O)C(N=Nc3ccc(Cl)cc3Cl)C(C)=O)c(C)c2)cc1C` (stereo not drawn) was run?
A: Its TD50 is 11700 mg/kg/day (inactive).

Q: And the TD50 (rat, strain Sprague-Dawley, both sexes, in feed, site: any site (literature study), lesion: one or several types, types not named, dosed 104 weeks, study length 104 weeks)?
A: The TD50 was 13700 mg/kg/day (inactive).

Q: What does the source list for `COC1COC(OC2COC(OC3COC(OC4COC(OC)C(OS(=O)(=O)O)C4OS(=O)(=O)O)C(OC4OC(C(=O)O)C(OC)C(OS(=O)(=O)O)C4OS(=O)(=O)O)C3OS(=O)(=O)O)C(OS(=O)(=O)O)C2OS(=O)(=O)O)C(OS(=O)(=O)O)C1OS(=O)(=O)O` (stereo not drawn)?
A: TD50 (mouse, strain B6C3F1, females, by gavage, site: all sites, lesion: hemangioma + hemangiosarcoma, dosed 104 weeks, study length 104 weeks): 1700 mg/kg/day; TD50 (mouse, strain B6C3F1, females, by gavage, site: all sites, lesion: hemangioma, dosed 104 weeks, study length 104 weeks): 4340 mg/kg/day; TD50 (mouse, strain B6C3F1, females, by gavage, site: all sites, lesion: malignant lymphoma, dosed 104 weeks, study length 104 weeks): 927 mg/kg/day; TD50 (mouse, strain B6C3F1, females, by gavage, site: any site (literature study), lesion: several types, types named in the paper, dosed 104 weeks, study length 104 weeks): 660 mg/kg/day; TD50 (mouse, strain B6C3F1, females, by gavage, site: liver, lesion: hemangiosarcoma + hepatocellular adenoma + hepatocellular carcinoma, dosed 104 weeks, study length 104 weeks): 663 mg/kg/day; TD50 (mouse, strain B6C3F1, females, by gavage, site: liver, lesion: hemangiosarcoma, dosed 104 weeks, study length 104 weeks): 3160 mg/kg/day; TD50 (mouse, strain B6C3F1, females, by gavage, site: liver, lesion: hepatocellular adenoma + hepatoblastoma + hepatocellular carcinoma, dosed 104 weeks, study length 104 weeks): 867 mg/kg/day; TD50 (mouse, strain B6C3F1, females, by gavage, site: liver, lesion: hepatocellular adenoma + hepatocellular carcinoma, dosed 104 weeks, study length 104 weeks): 867 mg/kg/day; TD50 (mouse, strain B6C3F1, females, by gavage, site: liver, lesion: hepatocellular adenoma, dosed 104 weeks, study length 104 weeks): 991 mg/kg/day; TD50 (mouse, strain B6C3F1, males, by gavage, site: all sites, lesion: hemangiosarcoma, dosed 104 weeks, study length 104 weeks): 1340 mg/kg/day; TD50 (mouse, strain B6C3F1, males, by gavage, site: any site (literature study), lesion: several types, types named in the paper, dosed 104 weeks, study length 104 weeks): 297 mg/kg/day; TD50 (mouse, strain B6C3F1, males, by gavage, site: liver, lesion: hemangiosarcoma, dosed 104 weeks, study length 104 weeks): 1090 mg/kg/day; TD50 (mouse, strain B6C3F1, males, by gavage, site: liver, lesion: hepatocellular adenoma + hepatoblastoma + hepatocellular carcinoma, dosed 104 weeks, study length 104 weeks): 538 mg/kg/day; TD50 (mouse, strain B6C3F1, males, by gavage, site: liver, lesion: hepatocellular adenoma + hepatocellular carcinoma, dosed 104 weeks, study length 104 weeks): 499 mg/kg/day; TD50 (mouse, strain B6C3F1, males, by gavage, site: lung, lesion: alveolar/bronchiolar adenoma + alveolar/bronchiolar carcinoma, dosed 104 weeks, study length 104 weeks): 8000 mg/kg/day; TD50 (rat, strain Fischer 344, females, by gavage, site: any site (literature study), lesion: several types, types named in the paper, dosed 104 weeks, study length 104 weeks): 1980 mg/kg/day (inactive); carcinogen call (rat, strain Fischer 344, males, by gavage, site: any site (literature study), lesion: several types, types named in the paper, dosed 104 weeks, study length 104 weeks): negative (inactive)
